Test results: paper PMC8972196, “A Set of Experimentally Validated Decoys for the Human CC Chemokine Receptor 7 (CCR7) Obtained by Virtual Screening” (Frontiers in Pharmacology, 2022)
Like-named read-outs stand apart in the source and are kept apart here.

Biological target: T1, human CCR7 (Homo sapiens, UniProt P32248)
T1 construct: expressed in transfected cells
T1 sequence (P32248 25-378): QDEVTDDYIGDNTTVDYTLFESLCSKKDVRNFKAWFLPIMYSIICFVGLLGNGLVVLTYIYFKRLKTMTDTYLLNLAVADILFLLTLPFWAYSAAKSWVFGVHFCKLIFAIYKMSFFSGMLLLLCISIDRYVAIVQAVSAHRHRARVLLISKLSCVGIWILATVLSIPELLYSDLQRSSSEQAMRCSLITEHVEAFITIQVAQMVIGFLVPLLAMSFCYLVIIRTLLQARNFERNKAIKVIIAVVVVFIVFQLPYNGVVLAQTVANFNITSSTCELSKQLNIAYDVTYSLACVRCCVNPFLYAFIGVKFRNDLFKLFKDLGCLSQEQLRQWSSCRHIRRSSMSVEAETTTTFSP
Assay: CCL19-induced calcium mobilization assay, U87.CD4 cells expressing CCR7
Format: cell-based
Details: for IC50: read-out: IC50 [μM] block CCL19 induced calcium signaling
Procedure: U87.CD4 cells that stably express either human CCR7, CXCR2, CCR5 or CXCR4 were seeded (20,000 cells/well) in gelatin-coated black-walled polystyrene 96-well plates with clear bottom and incubated overnight at 37°C and 5% CO2. […] Culture medium was removed, and cells were incubated for 45 min at room temperature in the dark. […] Exactly the same protocol was used to record calcium responses in Chinese hamster ovary (CHO)-K1 cells, upon stimulation with adenosine triphosphate (ATP, purchased from Sigma).

[1] = CCL19 induced calcium signaling
[2] = classification as decoy or active on CCR7
[3] = CCL19-induced calcium signaling
[4] = classification of tested compounds as decoy or active

SMILES: O=c1[nH]c(NCC(O)c2ccc3ccccc3c2)nc2ccccc12 (stereo not drawn) [C219, O=c1[nH]c(NCC(O)c2ccc3ccccc3c2)nc2ccccc12]
- IC50 [1]: > 50 µM
- Decoy – 0 Active – 1 [2]: 0

SMILES: CN(C)[C@H]1CCCC[C@@H]1Nc1c(NCc2cc(C(F)(F)F)cc(C(F)(F)F)c2)c(=O)c1=O [C020, O=C1C(N[C@H]2CCCC[C@@H]2N(C)C)=C(NCC3=CC(C(F)(F)F)=CC(C(F)(F)F)=C3)C1=O]
- IC50 [3]: > 50 µM
- Decoy – 0 Active – 1 [4]: 0

SMILES: CN(C)S(=O)(=O)c1ccc(-c2nnc(C(=O)NCc3ccccn3)o2)cc1 [C085, CN(C)S(=O)(=O)c1ccc(-c2nnc(C(=O)NCc3ccccn3)o2)cc1]
- IC50 [3]: > 50 µM
- Decoy – 0 Active – 1 [4]: 0

SMILES: CN(Cc1ccccc1Cl)C(C(=O)O)c1ccc(F)c(CO)c1 (stereo not drawn) [C171, C[NH+](Cc1ccccc1Cl)C(C(=O)[O-])c1ccc(F)c(CO)c1]
- IC50 [1]: > 50 µM
- Decoy – 0 Active – 1 [2]: 0

SMILES: O=C(NCc1ccccc1F)N1CCC(c2ccc3c(c2)OCO3)C(O)C1 (stereo not drawn) [C180, O=C(NCc1ccccc1F)N1CCC(c2ccc3c(c2)OCO3)C(O)C1]
- IC50 [1]: > 50 µM
- Decoy – 0 Active – 1 [2]: 0

SMILES: CN(C)C(=O)c1cc(NCC(=O)NCc2ccco2)ccc1F [C064, CN(C)C(=O)c1cc(NCC(=O)NCc2ccco2)ccc1F]
- IC50 [3]: > 10 µM
- Decoy – 0 Active – 1 [4]: 0

SMILES: CC(=O)Nc1cccc(NCC(=O)N(Cc2ccc(C)o2)C2CC2)c1 [C054, CC(=O)Nc1cccc(NCC(=O)N(Cc2ccc(C)o2)C2CC2)c1]
- IC50 [3]: > 10 µM
- Decoy – 0 Active – 1 [4]: 0

SMILES: CC1CN(C(=O)C(C)N2CCC(NS(=O)(=O)c3ccccc3)CC2)CC(C)O1 (stereo not drawn) [C272, CC1CN(CC(O1)C)C(=O)C(C)[NH+]2CCC(CC2)NS(=O)(=O)c3ccccc3]
- IC50 [1]: > 50 µM
- Decoy – 0 Active – 1 [2]: 0

SMILES: CN(C)CC(C)(C)CNC(=O)C(=O)Nc1cccc(C(=O)N(C)C)c1 [C070, CN(C)C(=O)c1cccc(NC(=O)C(=O)NCC(C)(C)C[NH+](C)C)c1]
- IC50 [3]: > 10 µM
- Decoy – 0 Active – 1 [4]: 0

SMILES: COc1ccc(CC(C)(O)CNC(=O)NCc2cccc3ccccc23)cc1 (stereo not drawn) [C192, COc1ccc(CC(C)(O)CNC(=O)NCc2cccc3ccccc23)cc1]
- IC50 [1]: > 50 µM
- Decoy – 0 Active – 1 [2]: 0

SMILES: CC[C@@H](NC(=O)CCn1ccccc1=O)c1cc(F)ccc1F [C132, CC[C@@H](NC(=O)CCn1ccccc1=O)c1cc(F)ccc1F]
- IC50 [3]: > 50 µM
- Decoy – 0 Active – 1 [4]: 0

SMILES: CCc1ccc(C(NC(=O)NC2C=CC(CO)C2)C(C)(C)C)o1 (stereo not drawn) [C200, CCc1ccc(C(NC(=O)NC2C=CC(CO)C2)C(C)(C)C)o1]
- IC50 [1]: > 50 µM
- Decoy – 0 Active – 1 [2]: 0

SMILES: Cc1cccc(-c2cccc(C(=O)N3CC(O)CC3C(=O)O)c2)c1 (stereo not drawn) [C187, Cc1cccc(-c2cccc(C(=O)N3CC(O)CC3C(=O)[O-])c2)c1]
- IC50 [1]: > 50 µM
- Decoy – 0 Active – 1 [2]: 0

SMILES: Cc1ccc(C(NC(=O)Nc2ccc(C(N)=O)c(Cl)c2)C(C)(C)C)o1 (stereo not drawn) [C056, Cc1ccc(C(NC(=O)Nc2ccc(C(N)=O)c(Cl)c2)C(C)(C)C)o1]
- IC50 [3]: > 10 µM
- Decoy – 0 Active – 1 [4]: 0

SMILES: O=C(O)CN1C(=O)NC2(CCCc3ccccc32)C1=O (stereo not drawn) [C199, O=C([O-])CN1C(=O)NC2(CCCc3ccccc32)C1=O]
- IC50 [1]: > 50 µM
- Decoy – 0 Active – 1 [2]: 0

SMILES: O=C([C@@H]1C[C@@H]1c1ccco1)N1CCC[C@H]1Cc1ccc(F)cc1 [C154, O=C([C@@H]1C[C@@H]1c1ccco1)N1CCC[C@H]1Cc1ccc(F)cc1]
- IC50 [3]: > 50 µM
- Decoy – 0 Active – 1 [4]: 0

SMILES: CN(C)C(=O)c1ccc(CN2CCCC[C@H]2CCn2cccn2)o1 [C105, CN(C)C(=O)c1ccc(C[N@H+]2CCCC[C@H]2CCn2cccn2)o1]
- IC50 [3]: > 50 µM
- Decoy – 0 Active – 1 [4]: 0

SMILES: CN(C)C(=O)c1cc(NC(=O)NCC(C)(C)c2ccccc2)ccn1 [C129, CN(C)C(=O)c1cc(NC(=O)NCC(C)(C)c2ccccc2)ccn1]
- IC50 [3]: > 50 µM
- Decoy – 0 Active – 1 [4]: 0

SMILES: Cc1ccc(NCC(=O)NCc2ccco2)cc1C(=O)N(C)C [C057, Cc1ccc(NCC(=O)NCc2ccco2)cc1C(=O)N(C)C]
- IC50 [3]: > 10 µM
- Decoy – 0 Active – 1 [4]: 0

SMILES: O=c1c(Nc2cc(C(F)(F)F)cc(C(F)(F)F)c2)c(Nc2cc(C(F)(F)F)cc(C(F)(F)F)c2)c1=O [C018, O=C1C(NC2=CC(C(F)(F)F)=CC(C(F)(F)F)=C2)=C(NC3=CC(C(F)(F)F)=CC(C(F)(F)F)=C3)C1=O]
- IC50 [3]: > 50 µM
- Decoy – 0 Active – 1 [4]: 0

SMILES: CCNC(=O)CNc1ccc(C)c(C(=O)N(C)C)c1 [C072, CCNC(=O)CNc1ccc(C)c(C(=O)N(C)C)c1]
- IC50 [3]: > 10 µM
- Decoy – 0 Active – 1 [4]: 0

SMILES: Cc1ccc(N[C@H]2CS(=O)(=O)C[C@H]2OC(=O)c2ccccc2)cc1 [C120, Cc1ccc(N[C@H]2CS(=O)(=O)C[C@H]2OC(=O)c2ccccc2)cc1]
- IC50 [3]: > 50 µM
- Decoy – 0 Active – 1 [4]: 0

SMILES: CCOC(=O)NC(=S)Nc1ccc2nsnc2c1 [C044, S=C(NC1=CC2=NSN=C2C=C1)NC(OCC)=O]
- IC50 [3]: > 30 µM
- Decoy – 0 Active – 1 [4]: 0

SMILES: Cc1oc2ccccc2c1CNC(=O)N1CCC(C)(CO)CC1 [C167, Cc1oc2ccccc2c1CNC(=O)N1CCC(C)(CO)CC1]
- IC50 [1]: > 50 µM
- Decoy – 0 Active – 1 [2]: 0

SMILES: O=S(=O)(NC(c1cccnc1)C1CCOCC1)c1ccc2c(c1)CCO2 (stereo not drawn) [C256, c1cc(cnc1)C(C2CCOCC2)NS(=O)(=O)c3ccc4c(c3)CCO4]
- IC50 [1]: > 50 µM
- Decoy – 0 Active – 1 [2]: 0

SMILES: CC[C@@H](NC1=NS(=O)(=O)c2ccccc21)C(=O)NOC [C156, CC[C@@H](NC1=NS(=O)(=O)c2ccccc21)C(=O)NOC]
- IC50 [3]: > 50 µM
- Decoy – 0 Active – 1 [4]: 0

SMILES: COC(=O)c1sccc1Nc1c(NC2CCCCC2)c(=O)c1=O [C006, COC(=O)c1sccc1Nc1c(NC2CCCCC2)c(=O)c1=O]
- IC50 [3]: > 50 µM
- Decoy – 0 Active – 1 [4]: 0

SMILES: CCN(CC)S(=O)(=O)c1ccc2c(c1)cc(C(=O)NCc1ccc(C)o1)n2C [C102, CCN(CC)S(=O)(=O)c1ccc2c(c1)cc(C(=O)NCc1ccc(C)o1)n2C]
- IC50 [3]: > 50 µM
- Decoy – 0 Active – 1 [4]: 0

SMILES: CN(C)C1(CNc2c(N3CCN(Cc4ccccc4Cl)CC3)c(=O)c2=O)CCCC1 [C015, C[NH+](C)C1(CNc2c(N3CC[NH+](Cc4ccccc4Cl)CC3)c(=O)c2=O)CCCC1]
- IC50 [3]: > 50 µM
- Decoy – 0 Active – 1 [4]: 0

SMILES: C[C@H](c1ccccc1)N(C)CC(=O)Nc1cccc(C(=O)N(C)C)c1 [C133, C[C@H](c1ccccc1)[N@@H+](C)CC(=O)Nc1cccc(C(=O)N(C)C)c1]
- IC50 [3]: > 50 µM
- Decoy – 0 Active – 1 [4]: 0

SMILES: CNC(=O)CN(c1ccc(Cl)cc1)S(=O)(=O)c1ccc(OC)c(OC)c1 [C270, CNC(=O)CN(c1ccc(cc1)Cl)S(=O)(=O)c2ccc(c(c2)OC)OC]
- IC50 [1]: > 50 µM
- Decoy – 0 Active – 1 [2]: 0

SMILES: COc1cccc(N(CC(=O)Nc2cccc([N+](=O)[O-])c2)S(=O)(=O)c2ccc(C)cc2)c1 [C255, Cc1ccc(cc1)S(=O)(=O)N(CC(=O)Nc2cccc(c2)[N+](=O)[O-])c3cccc(c3)OC]
- IC50 [1]: > 50 µM
- Decoy – 0 Active – 1 [2]: 0

SMILES: COc1ccc(S(=O)(=O)Nc2ccccc2C(=O)N2CCOCC2)cc1Br [C251, COc1ccc(cc1Br)S(=O)(=O)Nc2ccccc2C(=O)N3CCOCC3]
- IC50 [1]: > 50 µM
- Decoy – 0 Active – 1 [2]: 0

SMILES: Cc1ccccc1C(O)CNC(=O)NCCc1cccc(C(N)=O)c1 (stereo not drawn) [C217, Cc1ccccc1C(O)CNC(=O)NCCc1cccc(C(N)=O)c1]
- IC50 [1]: > 50 µM
- Decoy – 0 Active – 1 [2]: 0

SMILES: CNC(=O)c1ccc(C=CC(=O)N(Cc2ccsc2)C2CC2)cc1 [C059, CNC(=O)c1ccc(C=CC(=O)N(Cc2ccsc2)C2CC2)cc1]
- IC50 [3]: > 10 µM
- Decoy – 0 Active – 1 [4]: 0

SMILES: CN1CCN(C(=O)c2ccc(CN(c3ccccc3)S(=O)(=O)c3ccccc3)cc2)CC1 [C234, C[NH+]1CCN(CC1)C(=O)c2ccc(cc2)CN(c3ccccc3)S(=O)(=O)c4ccccc4]
- IC50 [1]: > 50 µM
- Decoy – 0 Active – 1 [2]: 0

SMILES: CC1(O)CN(C(=O)c2cc3c(Br)cccc3[nH]2)C1 [C175, CC1(O)CN(C(=O)c2cc3c(Br)cccc3[nH]2)C1]
- IC50 [1]: > 50 µM
- Decoy – 0 Active – 1 [2]: 0

SMILES: COC(=O)/C(=C\NC(=S)N/C=C(/OC(=N)c1ccccc1)C(=O)OC)NC(=O)c1ccccc1 [C042, S=C(N/C=C(C(OC)=O)/NC(C1=CC=CC=C1)=O)N/C=C(C(OC)=O)/OC(C2=CC=CC=C2)=N]
- IC50 [3]: > 30 µM
- Decoy – 0 Active – 1 [4]: 0

SMILES: COC(=O)c1ccccc1Nc1c(NCC2CC2)c(=O)c1=O [C016, COC(=O)c1ccccc1Nc1c(NCC2CC2)c(=O)c1=O]
- IC50 [3]: > 50 µM
- Decoy – 0 Active – 1 [4]: 0

SMILES: Cc1ccc(NC=C2C(=O)CC(c3ccco3)CC2=O)cc1 (stereo not drawn) [C071, Cc1ccc(NC=C2C(=O)CC(c3ccco3)CC2=O)cc1]
- IC50 [3]: > 10 µM
- Decoy – 0 Active – 1 [4]: 0

SMILES: CC(C)[C@@H](NC(=O)CCN1CCCCCC1=O)c1ccccc1 [C112, CC(C)[C@@H](NC(=O)CCN1CCCCCC1=O)c1ccccc1]
- IC50 [3]: > 50 µM
- Decoy – 0 Active – 1 [4]: 0

SMILES: CCOC(=O)NC(=S)Nc1cc(C)nc(C)n1 [C046, CC1=NC(NC(NC(OCC)=O)=S)=CC(C)=N1]
- IC50 [3]: > 30 µM
- Decoy – 0 Active – 1 [4]: 0

SMILES: O=C([C@@H]1CCCO1)N1CCc2ncnc(NCCc3ccco3)c2CC1 [C086, O=C([C@@H]1CCCO1)N1CCc2ncnc(NCCc3ccco3)c2CC1]
- IC50 [3]: > 50 µM
- Decoy – 0 Active – 1 [4]: 0

SMILES: COC[C@@H](NC1=NS(=O)(=O)c2ccccc21)c1ccc(C)o1 [C134, COC[C@@H](NC1=NS(=O)(=O)c2ccccc21)c1ccc(C)o1]
- IC50 [3]: > 50 µM
- Decoy – 0 Active – 1 [4]: 0

SMILES: CC(C)Oc1ccc2ccccc2c1CNC(=O)N1CCC(C)(O)C1 (stereo not drawn) [C169, CC(C)Oc1ccc2ccccc2c1CNC(=O)N1CCC(C)(O)C1]
- IC50 [1]: > 50 µM
- Decoy – 0 Active – 1 [2]: 0
